pKi: −log10 of the molar value.
Molecular target: T1, human ALK5 (recombinant TGF β1 N-term GST-tagged, 80-end) (Homo sapiens, UniProt P36897)
T1 construct: human ALK5 (recombinant TGF β1 N-term GST-tagged, 80-end); GST (N); purchased
T1 sequence (P36897 80-503 limits assumed): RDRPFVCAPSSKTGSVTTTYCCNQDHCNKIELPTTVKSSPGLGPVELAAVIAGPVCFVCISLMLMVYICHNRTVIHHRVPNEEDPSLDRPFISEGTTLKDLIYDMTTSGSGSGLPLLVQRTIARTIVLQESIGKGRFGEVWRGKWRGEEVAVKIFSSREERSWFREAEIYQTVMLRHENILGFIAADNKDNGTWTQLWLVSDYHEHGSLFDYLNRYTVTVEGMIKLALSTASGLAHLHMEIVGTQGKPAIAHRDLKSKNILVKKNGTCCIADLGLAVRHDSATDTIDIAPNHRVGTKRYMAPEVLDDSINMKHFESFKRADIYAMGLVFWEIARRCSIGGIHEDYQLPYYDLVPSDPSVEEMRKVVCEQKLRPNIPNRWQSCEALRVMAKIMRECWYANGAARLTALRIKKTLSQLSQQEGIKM
Experiment: ADP-GLO kinase assay, biochemical ALK5 assay
Conditions: pIC50 converted to pKi using the Cheng-Prusoff equation, ATP at Km, or high ATP (30-fold Km) for very potent compounds, 25° C.
Description: The enzymatic activity of compounds of the present invention was monitored measuring the formation of ADP using the ADP-GLO Kinases assay. Following the incubation of the purified enzyme, a substrate and ATP, the produced ADP was converted into ATP, which in turn was converted into light by Ultra-Glo Luciferase. The luminescent signal positively correlated with ADP amount and kinase activity. Briefly, the kinase reaction was performed by incubating 2.6 nM of the purified, commercially available human ALK5 (recombinant TGF β1 N-term GST-tagged, 80-end), a final concentration of TGFβ1 peptide 94.5 μM (Promega, T36-58) and ultra-pure ATP (Promega V915B). The ATP concentration was set at the Km value (concentration of substrate which permits the enzyme to achieve half maximal velocity (Vmax)) of ALK5 (0.5 μM). Compound and ALK5 kinase were mixed and incubated for 15 mins. Reactions were initiated by addition of ATP at a final concentration in the assay of […]. After an incubation of 120 min, the reaction was stopped, and ADP production detected with ADP-Glo kit according to manufacturer's indications. To overcome the assay wall limit for very potent compounds the assay protocol was changed by using a high ATP concentration (30-fold Km). Compounds and ALK5 kinase were mixed for 15 min and the reaction initiated by addition of TGFβ1 peptide and ATP at a final concentration in the assay of 15 μM. After an incubation of 60 min, the kinase reaction was stopped, and ADP production detected with ADP-Glo kit according to manufacturer's indications.
All reaction and incubation steps were performed at 25° C. and the assays were performed in 384-well format and validated using a selection of reference compounds tested in 11-point concentration-response curve.
Results were expressed as pIC50 (negative logarithm of IC50) and subsequently converted to pKi (negative logarithm of […]) using the Cheng-Prusoff equation. The higher the value of pKi, the greater the inhibition of ALK5 activity.

pKi	SMILES
8.50 to 9.00	CN1CCN(CCC(=O)Nc2cc(Nc3cc(-c4cc(Cl)ccc4F)nnc3C3=CCN(C(=O)OC(C)(C)C)CC3)ccn2)CC1 [Example 1, tert-butyl 4-[6-(5-chloro-2-fluorophenyl)-4-({2-[3-(4-methylpiperazin-1-yl)propanamido]pyridin-4-yl}amino)pyridazin-3-yl]-1,2,3,6-tetrahydropyridine-1-carboxylate]
8.50 to 9.00	CN1CCN(CCC(=O)Nc2cc(Nc3cc(-c4cc(Cl)ccc4F)nnc3C3CCN(C(=O)OC(C)(C)C)CC3)ccn2)CC1 [Example 2, tert-butyl 4-[6-(5-chloro-2-fluorophenyl)-4-({2-[3-(4-methylpiperazin-1-yl)propanamido]pyridin-4-yl}amino)pyridazin-3-yl]piperidine-1-carboxylate]
8.50 to 9.00	CN1CCN(CCC(=O)Nc2cc(Nc3cc(-c4cc(Cl)ccc4F)nnc3C3=CCNCC3)ccn2)CC1 [Example 3, N-(4-{[6-(5-chloro-2-fluorophenyl)-3-(1,2,3,6-tetrahydropyridin-4-yl)pyridazin-4-yl]amino}pyridin-2-yl)-3-(4-methylpiperazin-1-yl)propanamide]
9.10 to 9.90	CN1CCN(CCC(=O)Nc2cc(Nc3cc(-c4cc(Cl)ccc4F)nnc3C3CCNCC3)ccn2)CC1 [Example 4, N-(4-{[6-(5-chloro-2-fluorophenyl)-3-(piperidin-4-yl)pyridazin-4-yl]amino}pyridin-2-yl)-3-(4-methylpiperazin-1-yl)propanamide]
8.50 to 9.00	COC(=O)N1CC=C(c2nnc(-c3cc(Cl)ccc3F)cc2Nc2ccnc(NC(=O)CCN3CCN(C)CC3)c2)CC1 [Example 5, methyl 4-[6-(5-chloro-2-fluorophenyl)-4-({2-[3-(4-methylpiperazin-1-yl)propanamido]pyridin-4-yl}amino)pyridazin-3-yl]-1,2,3,6-tetrahydropyridine-1-carboxylate]
8.50 to 9.00	CN1CC=C(c2nnc(-c3cc(Cl)ccc3F)cc2Nc2ccnc(NC(=O)CCN3CCN(C)CC3)c2)CC1 [Example 6, N-(4-{[6-(5-chloro-2-fluorophenyl)-3-(1-methyl-1,2,3,6-tetrahydropyridin-4-yl)pyridazin-4-yl]amino}pyridin-2-yl)-3-(4-methylpiperazin-1-yl)propanamide]
9.10 to 9.90	COC(=O)N1CCC(c2nnc(-c3cc(Cl)ccc3F)cc2Nc2ccnc(NC(=O)CCN3CCN(C)CC3)c2)CC1 [Example 7, methyl 4-[6-(5-chloro-2-fluorophenyl)-4-({2-[3-(4-methylpiperazin-1-yl)propanamido]pyridin-4-yl}amino)pyridazin-3-yl]piperidine-1-carboxylate]
8.50 to 9.00	CN1CCC(c2nnc(-c3cc(Cl)ccc3F)cc2Nc2ccnc(NC(=O)CCN3CCN(C)CC3)c2)CC1 [Example 8, N-(4-{[6-(5-chloro-2-fluorophenyl)-3-(1-methylpiperidin-4-yl)pyridazin-4-yl]amino}pyridin-2-yl)-3-(4-methylpiperazin-1-yl)propanamide]
9.10 to 9.90	CN1CCN(CCC(=O)Nc2cc(Nc3cc(-c4cc(Cl)ccc4F)nnc3C3CN(C(=O)OC(C)(C)C)C3)ccn2)CC1 [Example 9, tert-butyl 3-[6-(5-chloro-2-fluorophenyl)-4-({2-[3-(4-methylpiperazin-1-yl)propanamido]pyridin-4-yl}amino)pyridazin-3-yl]azetidine-1-carboxylate]
9.10 to 9.90	CN1CCN(CCC(=O)Nc2cc(Nc3cc(-c4cc(Cl)ccc4F)nnc3C3CNC3)ccn2)CC1 [Example 10, N-(4-{[3-(azetidin-3-yl)-6-(5-chloro-2-fluorophenyl)pyridazin-4-yl]amino}pyridin-2-yl)-3-(4-methylpiperazin-1-yl)propanamide]
9.10 to 9.90	CN1CCN(CCC(=O)Nc2cc(Nc3cc(-c4cc(Cl)ccc4F)nnc3C3=CCCN(C(=O)OC(C)(C)C)C3)ccn2)CC1 [Example 11, tert-butyl 5-[6-(5-chloro-2-fluorophenyl)-4-({2-[3-(4-methylpiperazin-1-yl)propanamido]pyridin-4-yl}amino)pyridazin-3-yl]-1,2,3,6-tetrahydropyridine-1-carboxylate]
8.50 to 9.00	CN1CCN(CCC(=O)Nc2cc(Nc3cc(-c4cc(Cl)ccc4F)nnc3C3=CCCNC3)ccn2)CC1 [Example 12, N-(4-{[6-(5-chloro-2-fluorophenyl)-3-(1,2,5,6-tetrahydropyridin-3-yl)pyridazin-4-yl]amino}pyridin-2-yl)-3-(4-methylpiperazin-1-yl)propanamide]
8.50 to 9.00	CN1CCN(CCC(=O)Nc2cc(Nc3cc(-c4cc(Cl)ccc4F)nnc3C3=CCCN(C)C3)ccn2)CC1 [Example 13, N-(4-{[6-(5-chloro-2-fluorophenyl)-3-(1-methyl-1,2,5,6-tetrahydropyridin-3-yl)pyridazin-4-yl]amino}pyridin-2-yl)-3-(4-methylpiperazin-1-yl)propanamide]
8.50 to 9.00	CC(=O)N1CCC=C(c2nnc(-c3cc(Cl)ccc3F)cc2Nc2ccnc(NC(=O)CCN3CCN(C)CC3)c2)C1 [Example 14, N-(4-{[3-(1-acetyl-1,2,5,6-tetrahydropyridin-3-yl)-6-(5-chloro-2-fluorophenyl)pyridazin-4-yl]amino}pyridin-2-yl)-3-(4-methylpiperazin-1-yl)propanamide]
9.10 to 9.90	CN1CCN(CCC(=O)Nc2cc(Nc3cc(-c4cc(Cl)ccc4F)nnc3C3CCN3C(=O)OC(C)(C)C)ccn2)CC1 (stereo not shown) [Example 15, tert-butyl 2-[6-(5-chloro-2-fluorophenyl)-4-({2-[3-(4-methylpiperazin-1-yl)propanamido]pyridin-4-yl}amino)pyridazin-3-yl]azetidine-1-carboxylate]
9.10 to 9.90	CN1CCN(CCC(=O)Nc2cc(Nc3cc(-c4cc(Cl)ccc4F)nnc3C3CCN3)ccn2)CC1 (stereo not shown) [Example 16, N-(4-{[3-(azetidin-2-yl)-6-(5-chloro-2-fluorophenyl)pyridazin-4-yl]amino}pyridin-2-yl)-3-(4-methylpiperazin-1-yl)propanamide]
8.50 to 9.00	CN1CCN(CCC(=O)Nc2cc(Nc3cc(-c4cc(Cl)ccc4F)nnc3C3CCC(=O)N3C)ccn2)CC1 (stereo not shown) [Example 17, N-(4-((6-(5-chloro-2-fluorophenyl)-3-(1-methyl-5-oxopyrrolidin-2-yl)pyridazin-4-yl)amino)pyridin-2-yl)-3-(4-methylpiperazin-1-yl)propanamide]
9.10 to 9.90	CN1CCN(CCC(=O)Nc2cc(Nc3cc(-c4cc(Cl)ccc4F)nnc3C3CCO3)ccn2)CC1 (stereo not shown) [Example 18, N-(4-{[6-(5-chloro-2-fluorophenyl)-3-(oxetan-2-yl)pyridazin-4-yl]amino}pyridin-2-yl)-3-(4-methylpiperazin-1-yl)propanamide]
9.10 to 9.90	CN1CCN(CCC(=O)Nc2cc(Nc3cc(-c4cc(Cl)ccc4F)nnc3C3CCC(=O)S3)ccn2)CC1 (stereo not shown) [Example 19, N-(4-((6-(5-chloro-2-fluorophenyl)-3-(5-oxotetrahydrothiophen-2-yl)pyridazin-4-yl)amino)pyridin-2-yl)-3-(4-methylpiperazin-1-yl)propanamide]
9.10 to 9.90	CN1CCN(CCC(=O)Nc2cc(Nc3cc(-c4cc(Cl)ccc4F)nnc3C3COC(C)(C)N3C(=O)OC(C)(C)C)ccn2)CC1 (stereo not shown) [Example 20, tert-butyl 4-(6-(5-chloro-2-fluorophenyl)-4-((2-(3-(4-methylpiperazin-1-yl)propanamido)pyridin-4-yl)amino)pyridazin-3-yl)-2,2-dimethyloxazolidine-3-carboxylate]
9.10 to 9.90	CN1CCN(CCC(=O)Nc2cc(Nc3cc(-c4cc(Cl)ccc4F)nnc3C3CCOC3)ccn2)CC1 (stereo not shown) [Example 21, N-(4-((6-(5-chloro-2-fluorophenyl)-3-(tetrahydrofuran-3-yl)pyridazin-4-yl)amino)pyridin-2-yl)-3-(4-methylpiperazin-1-yl)propanamide]
9.10 to 9.90	CN1CCN(CCC(=O)Nc2cc(Nc3cc(-c4cc(Cl)ccc4F)nnc3C3CCCS3)ccn2)CC1 (stereo not shown) [Example 22, N-(4-((6-(5-chloro-2-fluorophenyl)-3-(tetrahydrothiophen-2-yl)pyridazin-4-yl)amino)pyridin-2-yl)-3-(4-methylpiperazin-1-yl)propanamide]

Reference: patent publication US20250100997A1, “PYRIDAZINYL AMINO DERIVATIVES AS ALK5 INHIBITORS” (CHIESI FARMACEUTICI S.P.A., priority 2022, published 2025)
